Assay results reported in PubChem BioAssay AID1996.
Values after ≈ are worked out from the molar mass of the structure shown.

details: buffer; pH 7.4; 200.0 µM

Row | SMILES | solubility kinetic [µg/mL]
1 | CN(C(=O)COC(=O)c1ccc(S(=O)(=O)N2CCOCC2)cc1)c1ccccc1 | 15.8 (≈ 37.8 µM)
2 | CCCCC1CN2CCc3c([nH]c4ccccc34)C2(C)C1.Cl (stereo unspecified) | 27.7
3 | CCN(C(=O)c1ccco1)c1nnc(-c2cccnc2)s1 | > 45.1
4 | CSCCC(NC(=O)c1ccco1)C(=O)NCC1CCCCC1 (stereo unspecified) | > 50.8
5 | COc1ccc(-c2cc3nc(CCl)[nH]c(=O)c3s2)cc1 | 2.8 (≈ 9.13 µM)
6 | Cc1ccc2c(Cl)cc(Cl)c(OCC(=O)NC(C)(C)C)c2n1 | 10 (≈ 29.3 µM)
7 | COC(=O)NC(=C(Cl)Cl)P(=O)(c1ccccc1)c1ccccc1 | > 55.5
8 | COc1ccc(CNC(=O)CSC(=S)N2CCCC2)cc1 | 16.2 (≈ 49.9 µM)
9 | O=C(OCC(=O)N1CCCC1)c1c(Cl)ccc(Cl)c1Cl | 39 (≈ 116 µM)
10 | O=C(COC(=O)CNC(=O)C1CCCCC1)Nc1ccccc1 | > 47.8
11 | CC(C)(C)c1ccc(NC(=O)CON=C(N)c2ccccc2)cc1 | 3.8 (≈ 11.7 µM)
12 | Cc1ncc([N+](=O)[O-])n1CC(=O)Nc1ccc(Cl)cc1 | 5.7 (≈ 19.3 µM)
13 | CN1CCC(N(C)C(=S)Nc2ccc(F)cc2)CC1 | > 42.2
14 | N#Cc1ccc(C(=O)NC23CC4CC(CC(C4)C2)C3)cc1 | 0.8 (≈ 2.85 µM)
15 | CCCC(C(=O)Nc1ccc2c(C)cc(=O)oc2c1)c1ccccc1 (stereo unspecified) | 2.9 (≈ 8.65 µM)
16 | O=C1CSCC(=O)N1Cc1ccc(Cl)c(Cl)c1 | 43.2 (≈ 149 µM)
17 | COc1ccc(CCC(=O)Nc2nc(C)c(C(=O)N(C)C)s2)cc1 | 41.3 (≈ 119 µM)
18 | Cc1ccc(S(=O)(=O)N[C@H](C(=O)OCC(=O)NC(=O)NCc2ccco2)C(C)C)cc1 | > 67.7
19 | COc1ccc2c(c1)-c1nc(/N=C/c3cccc(OC)c3O)sc1CC2 | > 55
20 | Cc1ccc(CC(=O)NC2CCN(C)CC2)cc1 | > 37
21 | Cc1ncc(CN2CCCC(C(=O)c3sccc3C)C2)s1 (stereo unspecified) | 37.4 (≈ 117 µM)
22 | CC(C)(C)S(=O)(=O)Cc1nc(-c2ccc(Cl)c(Cl)c2)cs1 | < 0.8
23 | Cc1ccc(OCC(=O)Nc2ccc(CN3CCOCC3)cc2)cc1 | 27.8 (≈ 81.7 µM)

Row | SMILES | solubility kinetic [µg/mL]
24 | CCC(=O)Nc1ccc(NC(=O)CCc2ccccc2)cn1 | 44.5 (≈ 150 µM)
25 | Cc1ccc(C(=O)OCC(=O)NC(C)C2CC3CCC2C3)cc1N (stereo unspecified) | > 49.6
26 | COc1ccc(C(=O)C2CCN(C(=O)c3ccc(F)cc3)CC2)cc1 | 50.6 (≈ 148 µM)
27 | COc1ccc(N2C(=O)CS/C2=N\C(=S)Nc2ccccc2)cc1 | 1.4 (≈ 3.92 µM)
28 | Cc1ccc2nc3c(nc2c1C)C(O)=C3O | 24.7 (≈ 115 µM)
29 | O=C(Nc1cccc(F)c1)Nc1ccc2c(c1)CCC2 | < 0.3
30 | O=S(=O)(c1ccc(-c2ccon2)s1)N1CCN(c2ccncc2)CC1 | 37.8 (≈ 100 µM)
31 | Cc1ccc([N+](=O)[O-])cc1NC(=O)c1cccnc1 | > 38.6
32 | Cc1ncc([N+](=O)[O-])n1S(=O)(=O)c1cc(Cl)ccc1Cl | 40.3 (≈ 120 µM)
33 | O=C(NC1CCN(C(=O)Nc2ccc(F)cc2)CC1)c1ccc(F)cc1 | 3.7 (≈ 10.3 µM)
34 | COC(=O)c1ccc(S(=O)(=O)NCc2ccc(OC)cc2)n1C | > 50.8
35 | CC(C)(CO)Nc1ncnc2onc(-c3ccc(F)cc3)c12 | > 45.3
36 | O=C(c1ccc(Cl)cc1)n1cnc2ccccc21 | > 38.5
37 | Cc1ccc(CNC(=O)C2CC(=O)N(C3CCCCCC3)C2)cc1 (stereo unspecified) | 48.8 (≈ 149 µM)
38 | COc1ccc(NC(=S)NC2CCCCC2)c(OC)c1 | > 44.2
39 | Cn1cccc1C1CCCN1CC(=O)Nc1ccc(C#N)c(Cl)c1 (stereo unspecified) | 12.3 (≈ 35.9 µM)
40 | COc1ccc(NC(=S)NC(=NS(=O)(=O)c2ccc(Cl)cc2)c2ccccc2)cc1 | 47.3 (≈ 103 µM)
41 | O=C1Nc2ccccc2N=C(c2ccccc2)c2ccccc21 | 0.9 (≈ 3.02 µM)
42 | O=C(Cc1c(F)cccc1Cl)NCc1cccnc1 | > 41.8
43 | CCOC(=O)C1CCN(S(=O)(=O)c2ccc(Cl)s2)CC1 | 12.3 (≈ 36.4 µM)
44 | c1ccc(CN2CCN(c3cnc4ccccc4n3)CC2)cc1 | 37.7 (≈ 124 µM)
45 | CC(C(=O)Nc1ccccc1)N1CCN(c2ccccn2)CC1 (stereo unspecified) | 11.2 (≈ 36.1 µM)
46 | O=C(O)CNS(=O)(=O)c1c(Cl)cccc1Cl | > 42.6
